Bridge positions count the residues as written; N and C are the ends. Peptide text beside a SMILES is read from it.
Molecular target: endothelin receptor
Test: [125I]endothelin displacement from rat posterior cortex plus cerebellum membranes
Type: binding
Settings: displacement of [125I]endothelin, rat brain membranes, 25° C., 60 minutes
Procedure: A membrane preparation was made from rat posterior cortex plus cerebellum and the tissue was ground using a POLYTRON in 50 mM Tris buffer pH 7.4. After 30 minutes at 25° C. (water bath), the homogenate was centrifuged at 30,000 g for 15 minutes (2 centrifugations interspersed by taking up in Tris buffer pH 7.4).
The pellets were resuspended in an incubation buffer (25 mM Tris, pepstatin A 5 μg/ml, aprotinin 3 μg/ml, 0.1 mM PMSF, 3 mM EDTA, 1 mM EGTA pH 7.4).
2 ml aliquots were distributed in haemolysis tubes and [125 I]endothelin (approximately 50,000 dpm/tube) and the test product were added. The product was first tested at […] in triplicate. When the test product displaced by more than 50% the radioactivity specifically bound to the receptor, it was tested again in a series of 7 concentrations to determine the concentration which inhibited by 50% the radioactivity specifically bound to the receptor. The 50% inhibitory concentration was thereby determined.
Non-specific binding was determined by adding 10^-6 M endothelin (in triplicate). The preparation was incubated at 25° C. for 60 minutes, put back on a water bath at 0° C. for 5 minutes, filtered off under reduced pressure and rinsed with […] Tris buffer pH 7.4, and the radioactivity was counted in the presence of Triton scintillant. The result was expressed directly as a 50% inhibitory concentration (IC50), that is to say as a concentration of test product, expressed in nM, required to displace 50% of the specific radioactivity bound to the receptor under study.

CC[C@H](C)[C@H](NC(=O)[C@H](CC(=O)O)NC(=O)[C@H](CC(C)C)NC(=O)[C@H](Cc1c[nH]cn1)NC(=O)[C@@H]1CSSC[C@H](NC(=O)[C@@H](N)CO)C(=O)N[C@@H](Cc2ccccc2)C(=O)N[C@@H](CO)C(=O)N[C@@H](CO)C(=O)N[C@@H](CC(C)C)C(=O)N[C@@H](CC(=O)O)C(=O)N[C@@H](CCCCN)C(=O)N[C@@H](CCC(=O)O)C(=O)N[C@@H](C)C(=O)N[C@@H](C(C)C)C(=O)N[C@@H](Cc2ccc(O)cc2)C(=O)N[C@@H](Cc2ccccc2)C(=O)N1)C(=O)N[C@H](C(=O)N[C@@H](Cc1c[nH]c2ccccc12)C(=O)O)[C@@H](C)CC [Example 15] (H-SCFSSLDKEAVYFCHLDIIW-OH; disulfide 2-14)
IC50: 17 nM

CC[C@H](C)[C@H](NC(=O)[C@H](CC(=O)O)NC(=O)[C@H](CC(=O)O)NC(=O)[C@H](Cc1c[nH]cn1)NC(=O)[C@@H]1CSSC[C@H](N)C(=O)N[C@@H](CO)C(=O)N[C@H]2CSSC[C@H](NC(=O)[C@H](CCC(=O)O)NC(=O)[C@H](CCCCN)NC(=O)[C@H](CC(=O)O)NC(=O)[C@H](CC(C)C)NC(=O)[C@H](Cc3c[nH]c4ccccc34)NC(=O)[C@H](CO)NC(=O)[C@H](CC(N)=O)NC2=O)C(=O)N[C@@H](C(C)C)C(=O)N[C@@H](Cc2ccc(O)cc2)C(=O)N[C@@H](Cc2ccccc2)C(=O)N1)C(=O)N[C@H](C(=O)N[C@@H](Cc1c[nH]c2ccccc12)C(=O)O)[C@@H](C)CC [Example 12] (H-CSCNSWLDKECVYFCHDDIIW-OH; disulfide 1-15, 3-11)
IC50: 6.8 nM

CC[C@H](C)[C@H](NC(=O)[C@H](CC(=O)O)NC(=O)[C@H](CC(C)C)NC(=O)[C@H](Cc1c[nH]cn1)NC(=O)[C@@H]1CSSC[C@H](NC(=O)[C@@H](N)CO)C(=O)N[C@@H](CC(N)=O)C(=O)N[C@@H](CO)C(=O)N[C@@H](Cc2c[nH]c3ccccc23)C(=O)N[C@@H](CC(C)C)C(=O)N[C@@H](CC(=O)O)C(=O)N[C@@H](CCCCN)C(=O)N[C@@H](CCC(=O)O)C(=O)N[C@@H](C)C(=O)N[C@@H](C(C)C)C(=O)N[C@@H](Cc2ccc(O)cc2)C(=O)N[C@@H](Cc2ccccc2)C(=O)N1)C(=O)N[C@H](C(=O)N[C@@H](Cc1c[nH]c2ccccc12)C(=O)O)[C@@H](C)CC [Example 16] (H-SCNSWLDKEAVYFCHLDIIW-OH; disulfide 2-14)
IC50: 7.2 nM

CC[C@H](C)[C@H](NC(=O)[C@H](CC(=O)O)NC(=O)[C@H](CC(C)C)NC(=O)[C@H](Cc1c[nH]cn1)NC(=O)[C@@H]1CSSC[C@H](N)C(=O)N[C@@H](CO)C(=O)N[C@H]2CSSC[C@H](NC(=O)[C@H](CCC(=O)O)NC(=O)[C@H](CCCCN)NC(=O)[C@H](CC(=O)O)NC(=O)[C@H](CC(C)C)NC(=O)[C@H](CC(=O)O)NC(=O)[C@H](CO)NC(=O)[C@H](Cc3ccccc3)NC2=O)C(=O)N[C@@H](C(C)C)C(=O)N[C@@H](Cc2ccc(O)cc2)C(=O)N[C@@H](Cc2ccccc2)C(=O)N1)C(=O)N[C@H](C(=O)N[C@@H](Cc1c[nH]c2ccccc12)C(=O)O)[C@@H](C)CC [Example 9] (H-CSCFSDLDKECVYFCHLDIIW-OH; disulfide 1-15, 3-11)
IC50: 2.4 nM

— US5439887A, “Peptide having antihypertensive activity free of vascoconstrictor activity” (Roussel-Uclaf, priority 1992, dated 1995)
